Source: patent publication US20260226071A1, “2, 4-DIANILINOPYRIMIDINE-BASED AURORA-A KINASE SELECTIVE DEGRADATION INDUCING COMPOUNDS” (UPPTHERA, INC., priority 2023, published 2026)

Columns and labels:
NCI-H446 cell line = test: Cell viability assay for NCI-H446 cell line; format: cell-based; conditions: Homo sapiens, NCI-H446, 120 h; H446 cells, 5 days culture, EZ-Cytox; read-out: IC50 value (Level)
Source text: The NCI-H446 (hereafter H446) cell lines were provided from American Type Culture Collection (ATCC). For cell culture, RPMI medium 1640 (Gibco, Cat. No. 22400-089; Lot. No. 2522717), FBS (Gibco, Cat. No. 16000-044; Lot. No. 2716756P), Penicillin/Streptomycin (PS) (Gibco, Cat. No. 15140-122; Lot. No. 2585636), 75T cell culture flask (SPL, Cat. No. 70075), 96 well cell culture plate (SPL, Cat. No. 30096), PBS pH 7.4 (Gibco, Cat. No. 10010-023; Lot. No. 2561466), TrypLE™ Express (Gibco, Cat. No. 12605-010; Lot. No. 2492811), counting chamber (hematocytometer) (Hirschmann, Cat. No. 8100204) and 0.4% Trypan Blue solution (DYNEBIO, Cat. No. CBT3710; Lot. No. 20231017) were used. Cells were cultured in RPMI 1640 medium supplemented with 10% FBS and 1% PS and incubated at 37° C., 5% CO2 condition in CO2 incubator (ThermoScientific, Cat. No. 4111).
For experiment, the present compounds were fully dissolved in DMSO (Sigma-Aldrich Cat. No. D2438, Lot. No. RNBL7287.
In each well of 96-well cell culture plate, […] cells of H446 cell lines were seeded in 150 μl of total medium volume. After 24 hours of cell seeding, the present compounds were treated.
The present compounds were each diluted 3-folds from the highest concentration of 1000 nM to the lowest concentration of 0.15 nM. The compound was added to each well to make the total volume of […] and the cells were cultured for 5 days in CO2 incubator (Thermo Fisher Science, Cat. No. 4111).
Thereafter, 20 μl of EZ-Cytox (DOGEN, Cat. NO. EZ-3000, Lot. No. DLS2308) was added to each well and the cells were cultured for 4 hours at the same condition in CO2 incubator. After culture, the absorbance of the sample was measured by setting the wavelength of a plate reader (BMG Labtech, CLARIOstar Plus) to […]. The samples were shaked for 2 minutes in the plate reader before measurement.

Aurora kinase A (AURKA) = molecular target: T1, Aurora kinase A (AURKA) (Homo sapiens, UniProt O14965); test: Luciferase assay for AURKA in HeLa LgBit (AURKA-HiBit KI) cell line; format: cell-based; conditions: HeLa LgBit (AURKA-HiBit KI) cells, measured after 12 hours
T1 construct: endogenous in cells; host or cells: HeLa LgBit (AURKA-HiBit KI), CRISPR/Cas9 knock-in at the endogenous AURKA locus
T1 sequence (O14965 1-403): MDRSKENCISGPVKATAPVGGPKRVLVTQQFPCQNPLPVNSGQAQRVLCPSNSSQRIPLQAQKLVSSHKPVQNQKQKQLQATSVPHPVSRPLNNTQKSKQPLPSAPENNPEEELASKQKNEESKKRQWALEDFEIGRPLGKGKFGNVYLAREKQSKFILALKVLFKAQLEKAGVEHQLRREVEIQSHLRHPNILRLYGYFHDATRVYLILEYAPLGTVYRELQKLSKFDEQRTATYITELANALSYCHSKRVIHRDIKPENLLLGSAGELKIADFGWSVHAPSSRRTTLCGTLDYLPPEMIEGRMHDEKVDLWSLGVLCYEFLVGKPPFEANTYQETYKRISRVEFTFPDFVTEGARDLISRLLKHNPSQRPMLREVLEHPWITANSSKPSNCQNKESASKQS
Procedure, shortened: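 Test compounds (10 nM or 100 nM) added to AURKA-HiBit knock-in HeLa LgBit cells that had been pre-loaded with Endurazine for 2 h following an 18 h culture at 3×10^4 cells. Endogenous AURKA-HiBit level followed by luminescence (470-480 nm), measured after 12 h.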

Row | SMILES | luminescence value (Level) (Aurora kinase A (AURKA); 10 nM compound) | luminescence value (Level) (Aurora kinase A (AURKA); 100 nM compound) | IC50 (NCI-H446 cell line)
1 | O=C1CCC(c2ccc(N3CCC(N4CCC5(CC4)CC(NC(=O)c4ccc(Nc6ncc(F)c(Nc7ccc(C(=O)Nc8ccccc8Cl)cc7)n6)cc4)C5)CC3)c(F)c2)C(=O)N1 (stereo not drawn) [Compound 21, N-(2-chlorophenyl)-4-((2-((4-((7-(1-(4-(2,6-dioxopiperidin-3-yl)-2-fluorophenyl)piperidin-4-yl)-7-azaspiro[3.5]nonan-2-yl)carbamoyl)phenyl)amino)-5-fluoropyrimidin-4-yl)amino)benzamide] | B (B is 0.3 to 0.5) | A (A is <0.2) | < 50 nM
2 | O=C1CCC(c2ccc(N3CCC(N4CCC5(CC4)CC(NC(=O)Cc4ccc(Nc6ncc(F)c(Nc7ccc(C(=O)Nc8ccccc8Cl)cc7)n6)cc4)C5)CC3)c(F)c2)C(=O)N1 (stereo not drawn) [Compound 22, N-(2-chlorophenyl)-4-((2-((4-(2-((7-(1-(4-(2,6-dioxopiperidin-3-yl)-2-fluorophenyl)piperidin-4-yl)-7-azaspiro[3.5]nonan-2-yl)amino)-2-oxoethyl)phenyl)amino)-5-fluoropyrimidin-4-yl)amino)benzamide] | A (A is <0.3) | A (A is <0.2) | 100 to 150 nM
3 | O=C1CCC(c2ccc(N3CCC(CN4CCC5(CC4)CC(NC(=O)c4ccc(Nc6ncc(F)c(Nc7ccc(C(=O)Nc8ccccc8Cl)cc7)n6)cc4)C5)CC3)c(F)c2)C(=O)N1 (stereo not drawn) [Compound 23, N-(2-chlorophenyl)-4-((2-((4-((7-((1-(4-(2,6-dioxopiperidin-3-yl)-2-fluorophenyl)piperidin-4-yl)methyl)-7-azaspiro[3.5]nonan-2-yl)carbamoyl)phenyl)amino)-5-fluoropyrimidin-4-yl)amino)benzamide] | B (B is 0.3 to 0.5) | A (A is <0.2) | < 50 nM
4 | O=C1CCC(Nc2ccc(N3CCC(CN4CCN(C(=O)Cc5ccc(Nc6ncc(F)c(Nc7ccc(C(=O)Nc8ccccc8Cl)cc7)n6)cc5)CC4)CC3)cc2)C(=O)N1 (stereo not drawn) [Compound 24, N-(2-chlorophenyl)-4-((2-((4-(2-(4-((1-(4-((2,6-dioxopiperidin-3-yl)amino)phenyl)piperidin-4-yl)methyl)piperazin-1-yl)-2-oxoethyl)phenyl)amino)-5-fluoropyrimidin-4-yl)amino)benzamide] | B (B is 0.3 to 0.5) | A (A is <0.2) | < 50 nM
5 | O=C1CCC(Nc2ccc(N3CCN(C[C@H]4CC[C@H](NC(=O)c5ccc(Nc6ncc(F)c(Nc7ccc(C(=O)Nc8ccccc8Cl)cc7)n6)cc5)CC4)CC3)cc2)C(=O)N1 (stereo partly drawn) [Compound 26, N-(2-chlorophenyl)-4-((2-((4-(((1r,4r)-4-((4-(4-((2,6-dioxopiperidin-3-yl)amino)phenyl)piperazin-1-yl)methyl)cyclohexyl)carbamoyl)phenyl)amino)-5-fluoropyrimidin-4-yl)amino)benzamide] | B (B is 0.3 to 0.5) | B (B is 0.2 to 0.4) | < 50 nM
6 | O=C1CCC(Nc2ccc(N3CCN(CC4CC45CCN(C(=O)c4ccc(Nc6ncc(F)c(Nc7ccc(C(=O)Nc8ccccc8Cl)cc7)n6)cc4)CC5)CC3)cc2)C(=O)N1 (stereo not drawn) [Compound 30, N-(2-chlorophenyl)-4-((2-((4-(1-((4-(4-((2,6-dioxopiperidin-3-yl)amino)phenyl)piperazin-1-yl)methyl)-6-azaspiro[2.5]octane-6-carbonyl)phenyl)amino)-5-fluoropyrimidin-4-yl)amino)benzamide] | B (B is 0.3 to 0.5) | A (A is <0.2) | < 50 nM

More lines, main results first:

Row | luminescence value (Level) (Aurora kinase A (AURKA); 10 nM compound) | luminescence value (Level) (Aurora kinase A (AURKA); 100 nM compound) | SMILES | IC50 (NCI-H446 cell line)
7 | B (B is 0.3 to 0.5) | A (A is <0.2) | O=C1CCC(Nc2ccc(N3CCC(CN4CCC5(CC4)CCN(C(=O)c4ccc(Nc6ncc(F)c(Nc7ccc(C(=O)Nc8ccccc8Cl)cc7)n6)cc4)C5)CC3)cc2)C(=O)N1 (stereo not drawn) [Compound 33, N-(2-chlorophenyl)-4-[[2-[4-[8-[[1-[4-[(2,6-dioxo-3-piperidyl)amino]phenyl]-4-piperidyl]methyl]-2,8-diazaspiro[4.5]decane-2-carbonyl]anilino]-5-fluoro-pyrimidin-4-yl]amino]benzamide] | 100 to 150 nM
8 | B (B is 0.3 to 0.5) | B (B is 0.2 to 0.4) | O=C1CCC(Nc2ccc(N3CC(CN4CC5CN(C(=O)c6ccc(Nc7ncc(F)c(Nc8ccc(C(=O)Nc9ccccc9Cl)cc8)n7)cc6)CC5C4)C3)cc2)C(=O)N1 (stereo not drawn) [Compound 35, N-(2-chlorophenyl)-4-((2-((4-(5-((1-(4-((2,6-dioxopiperidin-3-yl)amino)phenyl)azetidin-3-yl)methyl)octahydropyrrolo[3,4-c]pyrrole-2-carbonyl)phenyl)amino)-5-fluoropyrimidin-4-yl)amino)benzamide] | 150 to 200 nM
9 | B (B is 0.3 to 0.5) | A (A is <0.2) | O=C1CCC(Nc2ccc(N3CC(N4CCc5cc(NC(=O)c6ccc(Nc7ncc(F)c(Nc8ccc(C(=O)Nc9ccccc9Cl)cc8)n7)cc6)ccc5C4)C3)cc2)C(=O)N1 (stereo not drawn) [Compound 36, N-(2-chlorophenyl)-4-((2-((4-((2-(1-(4-((2,6-dioxopiperidin-3-yl)amino)phenyl)azetidin-3-yl)-1,2,3,4-tetrahydroisoquinolin-6-yl)carbamoyl)phenyl)amino)-5-fluoropyrimidin-4-yl)amino)benzamide] | 100 to 150 nM
10 | B (B is 0.3 to 0.5) | B (B is 0.2 to 0.4) | CN(CC1CCN(c2ccc(NC3CCC(=O)NC3=O)cc2)CC1)C[C@H]1CC[C@H](NC(=O)c2ccc(Nc3ncc(F)c(Nc4ccc(C(=O)Nc5ccccc5Cl)cc4)n3)cc2)CC1 (stereo partly drawn) [Compound 38, N-(2-chlorophenyl)-4-[[2-[4-[[4-[[[1-[4-[(2,6-dioxo-3-piperidyl)amino]phenyl]-4-piperidyl]methyl-methyl-amino]methyl]cyclohexyl]carbamoyl]anilino]-5-fluoro-pyrimidin-4-yl]amino]benzamide] | > 200 nM
11 | A (A is <0.3) | A (A is <0.2) | O=C1CCC(Nc2ccc(N3CCN(CCC4CCN(NC(=O)c5ccc(Nc6ncc(F)c(Nc7ccc(C(=O)Nc8ccccc8Cl)cc7)n6)cc5)CC4)CC3)cc2)C(=O)N1 (stereo not drawn) [Compound 43, N-(2-chlorophenyl)-4-((2-((4-((4-(2-(4-(4-((2,6-dioxopiperidin-3-yl)amino)phenyl)piperazin-1-yl)ethyl)piperidin-1-yl)carbamoyl)phenyl)amino)-5-fluoropyrimidin-4-yl)amino)benzamide] | < 50 nM
12 | B (B is 0.3 to 0.5) | A (A is <0.2) | CN(c1ccc(N2CCC(CN3CCN(C(=O)Cc4ccc(Nc5ncc(F)c(Nc6ccc(C(=O)Nc7ccccc7Cl)cc6)n5)cc4)CC3)CC2)cc1)C1CCC(=O)NC1=O (stereo not drawn) [Compound 44, N-(2-chlorophenyl)-4-((2-((4-(2-(4-((1-(4-((2,6-dioxopiperidin-3-yl)(methyl)amino)phenyl)piperidin-4-yl)methyl)piperazin-1-yl)-2-oxoethyl)phenyl)amino)-5-fluoropyrimidin-4-yl)amino)benzamide] | 100 to 150 nM
